{"source": "patent US8048869B2", "about": "“Pharmaceutical composition for use in hormone replacement therapy” (Pantarhei Bioscience B.V., priority 2001, dated 2011)", "key": {"[1]": {"settings": "tritium labeled, intravenously, two adult women; cited from earlier work"}, "[2]": {"target": "T1, rat uterine cytosol estrogen receptor (Rattus norvegicus, UniProt P06211)", "T1 construct": "host or cells: rat uterus (cytosol and nuclear fractions), Martucci et al. 1976", "T1 sequence (P06211 1-600)": "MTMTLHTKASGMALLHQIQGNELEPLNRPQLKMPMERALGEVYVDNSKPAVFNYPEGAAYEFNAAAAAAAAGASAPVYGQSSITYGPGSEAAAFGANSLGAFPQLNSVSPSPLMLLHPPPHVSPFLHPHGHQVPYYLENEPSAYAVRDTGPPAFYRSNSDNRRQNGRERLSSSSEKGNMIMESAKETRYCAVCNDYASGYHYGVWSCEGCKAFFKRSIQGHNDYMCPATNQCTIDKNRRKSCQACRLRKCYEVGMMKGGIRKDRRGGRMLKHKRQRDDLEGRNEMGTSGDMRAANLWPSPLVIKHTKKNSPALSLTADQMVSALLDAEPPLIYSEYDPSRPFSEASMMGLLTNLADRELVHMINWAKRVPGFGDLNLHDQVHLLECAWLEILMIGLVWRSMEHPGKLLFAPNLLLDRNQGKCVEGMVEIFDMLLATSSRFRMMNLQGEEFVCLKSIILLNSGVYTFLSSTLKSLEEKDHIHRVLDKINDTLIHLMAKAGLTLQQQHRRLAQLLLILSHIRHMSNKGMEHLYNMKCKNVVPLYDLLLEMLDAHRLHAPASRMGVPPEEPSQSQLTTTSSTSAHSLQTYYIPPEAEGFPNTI", "settings": "cited from earlier work"}, "[3]": {"system": "ovariectomized rats", "assay": "Modified 7-day vaginal cornification bioassay with uterine wet weight", "format": "in vivo, rat", "settings": "OVX rats, po, 7 days", "source_text": "Uterine weight increase in the rat was chosen as another relevant tissue-specific endpoint to determine the hormonal potency of estetrol (E4), particularly in relationship to its hormonal potency to induce vaginal cornification and to correct for vaginal atrophy. Orally (po) administered E4 was therefore tested in a modified 7-day vaginal cornification bioassay (see also example 1), including uterine wet weight measurements at necropsy, to account for vaginal and uterotrophic effects.\nThe uterotrophic response has been used for many years to assess estrogenic activity. The typical bioassay uses female rats with low levels of endogenous estrogens (e.g., ovariectomized adults or immature animals). In most assay designs the animals are dosed once or twice daily for 3 or 4 days, and twenty-four hours after the final dose the animals are killed, and the uteri excised and weighed. In the current bioassay, vaginal epithelial cornification, and uterine weight gain was evaluated in ovariectomized adult rats over a 7-day period. In this way, two distinct estrogen sensitive parameters could be evaluated concurrently.\nAdult intact female CD rats were ovariectomized to induce estrogen deficiency. […] Castrate vaginal smears are indicative that complete ovariectomy was achieved. […] Animals were orally dosed, once daily for 7 consecutive days with vehicle control (10% ethanol/sesame oil) or either 0.1, 0.3, 1.0, or 3.0 mg/kg/day E4. Daily vaginal lavages continued to be obtained for 7 days after dosing was initiated in order to detect vaginal cornification, as an indication of an estrogenic response. A drop of vaginal washings was placed on a glass slide and examined by light microscopy to detect the presence or absence of cornified epithelial cells. The cells present in the vaginal washings were recorded. Vaginal lavages were obtained prior to dosing on days 0-6 and prior to necropsy on day 7.\nOn Study Day 7, following vaginal lavage 24 hours after the final dose, all rats were euthanized by CO2 asphyxiation. An abdominal incision was made and the uterus excised, blotted and weighed. The occurrence of vaginal cornification, indicative of an estrogenic response, is an “all or none” response. Therefore, data were expressed as the number of rats showing a vaginal estrogenic response (for one or more days) over the number of rats treated (ratio). A Z-test of proportions was used to compare the four test groups to the vehicle control group. Group means±SEM were also calculated for the uterine weights. […] Therefore, a Kruskal-Wallis non-parametric ANOVA on ranks was performed and significant differences across the four treatment groups and the vehicle control were determined using Dunn's method."}, "[4]": {"system": "nonpregnant ewes", "settings": "intravenously administered; cited from earlier work"}}, "data": [{"smiles": "C[C@]12CC[C@@H]3c4ccc(O)cc4CC[C@H]3[C@@H]1[C@@H](O)[C@@H](O)[C@@H]2O", "note": "[E4, 1,3,5 (10)-estratrien-3,15α,16α,17β-tetrol]", "values": [{"measurement": "excretion and metabolism", "setting": "[1]", "value": "rapidly and completely excreted in urine as the glucosiduronate"}, {"measurement": "relative binding affinity, 17β-estradiol = 100%", "setting": "[2]", "value": 0.5, "unit": "%"}, {"measurement": "Uterine weight Mean", "setting": "[3]; 0.1 mg/kg/day", "value": 149.2, "unit": "mg"}, {"measurement": "Uterine weight Significantly different from vehicle (P < 0.05)", "setting": "[3]; 0.1 mg/kg/day", "value": "no"}, {"measurement": "Vaginal Cornification Non-responders", "setting": "[3]; 0.1 mg/kg/day", "value": 0}, {"measurement": "Vaginal Cornification Significantly different from vehicle (P < 0.05)", "setting": "[3]; 0.1 mg/kg/day", "value": "yes"}, {"measurement": "Vaginal Cornification responders", "setting": "[3]; 0.1 mg/kg/day", "value": 8}, {"measurement": "Uterine weight Mean", "setting": "[3]; 0.3 mg/kg/day", "value": 181.2, "unit": "mg"}, {"measurement": "Uterine weight Significantly different from vehicle (P < 0.05)", "setting": "[3]; 0.3 mg/kg/day", "value": "no"}, {"measurement": "Vaginal Cornification Non-responders", "setting": "[3]; 0.3 mg/kg/day", "value": 0}, {"measurement": "Vaginal Cornification Significantly different from vehicle (P < 0.05)", "setting": "[3]; 0.3 mg/kg/day", "value": "yes"}, {"measurement": "Vaginal Cornification responders", "setting": "[3]; 0.3 mg/kg/day", "value": 8}, {"measurement": "Uterine weight Mean", "setting": "[3]; 1.0 mg/kg/day", "value": 253.7, "unit": "mg"}, {"measurement": "Uterine weight Significantly different from vehicle (P < 0.05)", "setting": "[3]; 1.0 mg/kg/day", "value": "yes"}, {"measurement": "Vaginal Cornification Non-responders", "setting": "[3]; 1.0 mg/kg/day", "value": 0}, {"measurement": "Vaginal Cornification Significantly different from vehicle (P < 0.05)", "setting": "[3]; 1.0 mg/kg/day", "value": "yes"}, {"measurement": "Vaginal Cornification responders", "setting": "[3]; 1.0 mg/kg/day", "value": 8}, {"measurement": "Uterine weight Mean", "setting": "[3]; 3.0 mg/kg/day", "value": 308.4, "unit": "mg"}, {"measurement": "Uterine weight Significantly different from vehicle (P < 0.05)", "setting": "[3]; 3.0 mg/kg/day", "value": "yes"}, {"measurement": "Vaginal Cornification Non-responders", "setting": "[3]; 3.0 mg/kg/day", "value": 0}, {"measurement": "Vaginal Cornification Significantly different from vehicle (P < 0.05)", "setting": "[3]; 3.0 mg/kg/day", "value": "yes"}, {"measurement": "Vaginal Cornification responders", "setting": "[3]; 3.0 mg/kg/day", "value": 8}, {"measurement": "potency in uterine vasodilation relative to estriol and 17β-estradiol", "setting": "[4]", "value": "15 to 30", "unit": "times less potent"}]}]}
